Experimental data taken from patent US9932325B2 (Denali Therapeutics Inc., priority 2015, dated 2018).

molecular target: LRRK2 G2019S enzyme (Homo sapiens (Human), UniProt Q5S007, G2019S); assay: LRRK2 G2019S TR-FRET biochemical assay (LRRKtide substrate); details: 134 μM ATP
Description: Detection Reaction Conditions • 1× TR-FRET dilution buffer • 10 mM EDTA • 2 nM antibody • 23° C. reaction temperature • 10 μL total reaction volume
Compounds were prepared by initially diluting to 1 mM with DMSO. 35 μL of reference compound solution, 35 μL of test compound solution, and 35 μL HPE were successively added to the source plate (384-well assay plate, Labcyte). The plates were centrifuged at 2500 rpm for 1 minute and sealed in foil. […] The assay plate was centrifuged at 2500 rpm for 1 minute, and sealed with foil.
To perform the enzyme reaction, 5 μL of LRRKtide substrate and kinase mixture in assay buffer was added to all wells of the assay plate. The plate was centrifuged to concentrate the mixture at the bottom of the wells. The assay plate was incubated at 23° C. for 20 minutes. Following incubation, 5 μL of 2× ATP in assay buffer was added to each well, and plates were centrifuged to concentrate the mixture at the bottom of the wells. The plate was incubated at 23° C. for 60 minutes.
To perform the detection of the reaction, EDTA completely mixed in TR-FRET dilution buffer was added to antibody reagent. 10 μL of detection reagent was added to all wells of each well of the assay plate and the plate was centrifuged to concentrate the mixture at the bottom of the wells. The plate was then incubated at 23° C. for 60 minutes.

LRRK2 G2019S enzyme, sequence (Q5S007 whole entry G2019S): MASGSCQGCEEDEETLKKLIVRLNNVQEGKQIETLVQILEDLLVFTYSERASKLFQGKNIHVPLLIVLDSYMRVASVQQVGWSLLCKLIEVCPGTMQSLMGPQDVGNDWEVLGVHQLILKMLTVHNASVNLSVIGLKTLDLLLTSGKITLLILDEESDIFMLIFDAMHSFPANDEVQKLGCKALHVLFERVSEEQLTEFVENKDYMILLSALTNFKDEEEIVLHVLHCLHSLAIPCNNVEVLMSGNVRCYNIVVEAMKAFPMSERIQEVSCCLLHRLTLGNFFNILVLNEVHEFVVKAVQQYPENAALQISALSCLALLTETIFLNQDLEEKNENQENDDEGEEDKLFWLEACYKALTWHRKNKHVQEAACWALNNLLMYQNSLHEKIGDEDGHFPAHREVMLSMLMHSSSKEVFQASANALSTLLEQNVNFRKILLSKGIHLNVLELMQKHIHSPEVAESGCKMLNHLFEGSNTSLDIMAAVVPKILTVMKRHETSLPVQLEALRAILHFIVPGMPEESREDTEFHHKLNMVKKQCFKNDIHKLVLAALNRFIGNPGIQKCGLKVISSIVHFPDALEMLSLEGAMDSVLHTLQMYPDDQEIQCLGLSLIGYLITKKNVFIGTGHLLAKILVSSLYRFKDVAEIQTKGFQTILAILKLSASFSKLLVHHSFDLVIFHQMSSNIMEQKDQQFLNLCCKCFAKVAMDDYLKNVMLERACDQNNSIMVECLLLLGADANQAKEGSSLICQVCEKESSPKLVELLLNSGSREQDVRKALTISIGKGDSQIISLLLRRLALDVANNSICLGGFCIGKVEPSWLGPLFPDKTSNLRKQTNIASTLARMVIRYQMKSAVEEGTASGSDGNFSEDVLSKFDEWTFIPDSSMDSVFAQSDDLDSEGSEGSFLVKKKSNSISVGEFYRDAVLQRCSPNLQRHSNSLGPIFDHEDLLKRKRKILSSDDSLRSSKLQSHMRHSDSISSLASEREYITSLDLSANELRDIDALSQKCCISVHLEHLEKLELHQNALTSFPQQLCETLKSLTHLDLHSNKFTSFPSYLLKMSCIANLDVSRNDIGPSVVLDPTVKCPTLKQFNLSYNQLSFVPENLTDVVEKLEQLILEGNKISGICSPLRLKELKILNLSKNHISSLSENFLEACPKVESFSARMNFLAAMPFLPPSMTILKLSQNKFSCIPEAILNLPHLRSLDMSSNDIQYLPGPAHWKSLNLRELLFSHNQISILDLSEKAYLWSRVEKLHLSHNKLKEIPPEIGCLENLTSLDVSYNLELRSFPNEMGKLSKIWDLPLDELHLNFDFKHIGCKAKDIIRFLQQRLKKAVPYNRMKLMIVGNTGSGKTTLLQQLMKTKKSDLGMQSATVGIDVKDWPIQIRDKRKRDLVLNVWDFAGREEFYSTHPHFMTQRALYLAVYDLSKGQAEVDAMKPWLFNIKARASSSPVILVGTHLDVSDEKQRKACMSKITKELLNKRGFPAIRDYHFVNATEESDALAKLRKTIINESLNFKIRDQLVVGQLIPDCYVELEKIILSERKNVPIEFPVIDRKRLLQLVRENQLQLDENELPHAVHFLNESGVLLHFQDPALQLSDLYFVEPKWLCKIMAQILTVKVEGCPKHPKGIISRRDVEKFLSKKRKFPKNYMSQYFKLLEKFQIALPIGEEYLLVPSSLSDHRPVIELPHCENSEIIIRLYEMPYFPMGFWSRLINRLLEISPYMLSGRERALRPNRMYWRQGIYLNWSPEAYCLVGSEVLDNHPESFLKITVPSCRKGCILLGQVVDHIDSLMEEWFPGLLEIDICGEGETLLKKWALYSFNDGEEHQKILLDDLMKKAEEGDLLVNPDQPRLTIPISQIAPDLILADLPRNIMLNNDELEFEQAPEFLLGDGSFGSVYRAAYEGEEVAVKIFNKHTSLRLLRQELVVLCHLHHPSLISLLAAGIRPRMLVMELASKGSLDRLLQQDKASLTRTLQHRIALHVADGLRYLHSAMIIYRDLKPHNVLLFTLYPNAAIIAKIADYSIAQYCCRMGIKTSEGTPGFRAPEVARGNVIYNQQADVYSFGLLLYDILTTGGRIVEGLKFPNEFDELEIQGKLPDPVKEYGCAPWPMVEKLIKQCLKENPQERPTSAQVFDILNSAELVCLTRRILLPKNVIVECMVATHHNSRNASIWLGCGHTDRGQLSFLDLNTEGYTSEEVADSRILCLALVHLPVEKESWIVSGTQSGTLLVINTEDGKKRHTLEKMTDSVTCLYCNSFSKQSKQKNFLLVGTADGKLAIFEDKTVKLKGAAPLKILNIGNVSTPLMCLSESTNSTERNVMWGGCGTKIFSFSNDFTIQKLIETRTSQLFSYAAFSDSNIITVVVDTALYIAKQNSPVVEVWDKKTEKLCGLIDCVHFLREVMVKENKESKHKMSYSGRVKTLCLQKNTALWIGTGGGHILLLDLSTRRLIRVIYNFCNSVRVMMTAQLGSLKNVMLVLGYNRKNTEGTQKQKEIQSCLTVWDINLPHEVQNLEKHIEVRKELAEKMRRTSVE

[2H]C([2H])([2H])N1CCC(n2cc(Nc3ncc(C(F)(F)F)c(NCC)n3)c(C)n2)(C([2H])([2H])[2H])C1=O (single isomer, unassigned) [Compound 23] and [2H]C([2H])([2H])N1CCC(n2cc(Nc3ncc(C(F)(F)F)c(NCC)n3)c(C)n2)C1=O (stereo not drawn) [Compound 25] cannot be ordered by IC50: less than 30 nM for the first, less than 30 nM for the second.

CNc1nc(Nc2cn(C(C)(C)c3ncn(C)n3)nc2C)ncc1C(F)(F)F [Compound 14] and [2H]C([2H])([2H])n1cnc(C(C)(C)n2cc(Nc3ncc(Br)c(OC)n3)c(C)n2)n1 [Compound 33] cannot be ordered by IC50: less than 30 nM for the first, less than 30 nM for the second.

CCNc1nc(Nc2cc(C(C)(C)n3nccn3)nn2C2CC2)ncc1Br [Compound 126] and [2H]C([2H])([2H])n1nc(C(C)(C)n2nccn2)cc1Nc1ncc(Br)c(NC2CC2)n1 [Compound 79] cannot be ordered by IC50: less than 30 nM for the first, less than 30 nM for the second.

CCNc1nc(Nc2cnn([C@H]3C[C@@H](n4nccn4)C3)c2C2CC2)ncc1C(F)(F)F [Compound 101] and CCNc1nc(Nc2cnn([C@H]3C[C@H](n4nccn4)C3)c2C2CC2)ncc1C(F)(F)F [Compound 97] cannot be ordered by IC50: less than 30 nM for the first, less than 30 nM for the second.

CNc1nc(Nc2cnn3c2CC2(COC2)C3)ncc1C(F)(F)F [Compound 16] and CNc1nc(Nc2cnn3c2OCC2(CC2)C3)ncc1C(F)(F)F [Compound 17] cannot be ordered by IC50: less than 30 nM for the first, less than 30 nM for the second.

First: CCNc1nc(Nc2cc(N3CCCC3=O)nn2C2CC2)ncc1C(F)(F)F [Compound 153, 1-(1-cyclopropyl-5-((4-(ethylamino)-5-(trifluoromethyl)pyrimidin-2-yl)amino)-1H-pyrazol-3-yl)pyrrolidin-2-one]
Second: CCNc1nc(Nc2cc(C3(C)CCC(=O)N3)nn2C2CC2)ncc1C(F)(F)F (stereo not drawn) [Compound 136]
The IC50 of the first is lower: less than 30 nM for the first, 30 to 60 nM for the second. The first is the more potent here.

Cc1nn(C(C)(C)C#N)cc1Nc1ncc(C(F)(F)F)c(NC2(C)CC2)n1 [Compound 84] and Cc1nn(C(C)(C)C#N)cc1Nc1ncc(C(F)(F)F)c(NC2CC2)n1 [Compound 38] cannot be ordered by IC50: less than 30 nM for the first, less than 30 nM for the second.

First: CCNc1nc(Nc2ccnn2[C@H]2C[C@H](n3ccnn3)C2)ncc1C(F)(F)F [Compound 183, N2-(1-((1R,3R)-3-(1H-1,2,3-triazol-1-yl)cyclobutyl)-1H-pyrazol-5-yl)-N4-ethyl-5-(trifluoromethyl)pyrimidine-2,4-diamine]
Second: CCNc1nc(Nc2ccnn2[C@H]2C[C@@H](n3nccn3)C2)ncc1C(F)(F)F [Compound 188]
The IC50 of the first is lower: less than 30 nM for the first, 30 to 60 nM for the second. The first is the more potent here.

Cc1nn(C2(C)CCOC2=O)cc1Nc1ncc(C(F)(F)F)c(C2CC2)n1 (single isomer, unassigned) [Compound 103] and CNc1nc(Nc2cn(C3(C)CCOC3=O)nc2C)ncc1C(F)(F)F (single isomer, unassigned) [Compound 119] cannot be ordered by IC50: less than 30 nM for the first, less than 30 nM for the second.

First: CNc1nc(Nc2cn(C3C[C@@H]4[C@H](C3)C4(F)F)nc2Cl)ncc1C(F)(F)F (stereo partly drawn) [Compound 10]
Second: CNc1nc(Nc2cnn(C3C[C@@H]4[C@H](C3)C4(F)F)c2Cl)ncc1C(F)(F)F (stereo partly drawn) [Compound 9]
The IC50 of the first is higher: greater than 60 nM for the first, less than 30 nM for the second. The second is the more potent here.

CCNc1nc(Nc2cc([C@]34C[C@H]3COC4=O)nn2C2CC2)ncc1C(F)(F)F [Compound 165] and CNc1nc(Nc2cc([C@]34C[C@H]3COC4=O)nn2C2CC2)ncc1C(F)(F)F [Compound 168] cannot be ordered by IC50: less than 30 nM for the first, less than 30 nM for the second.

CCNc1nc(Nc2cn(C3(CF)CCOC3=O)nc2C)ncc1C(F)(F)F (single isomer, unassigned) [Compound 217] and CNc1nc(Nc2cn(C3(C)CCOC3=O)nc2Cl)ncc1C(F)(F)F (single isomer, unassigned) [Compound 99] cannot be ordered by IC50: less than 30 nM for the first, less than 30 nM for the second.

CCNc1nc(Nc2cc(C(C)(C)O)nn2C2CC2)ncc1C(F)(F)F [Compound 134] and CCNc1nc(Nc2cc(C(C)(C)O)nn2C2CCC2)ncc1C(F)(F)F [Compound 191] cannot be ordered by IC50: less than 30 nM for the first, less than 30 nM for the second.

CCNc1nc(Nc2cnn(C3CCC3)c2C#N)ncc1Br [Compound 58] and CCNc1nc(Nc2cnn(C3CCC3)c2C#N)ncc1C(F)(F)F [Compound 32] cannot be ordered by IC50: less than 30 nM for the first, less than 30 nM for the second.

[2H]C([2H])([2H])n1nc(C2(C)CCOC2=O)cc1Nc1ncc(C(F)(F)F)c(NCC)n1 (stereo not drawn) [Compound 174] and [2H]C([2H])([2H])n1nc(C2(C)CCOC2=O)cc1Nc1ncc(C(F)(F)F)c(NC)n1 (stereo not drawn) [Compound 176] cannot be ordered by IC50: less than 30 nM for the first, less than 30 nM for the second.

Going from CCNc1nc(Nc2cc(C3(C)CCn4ccnc43)nn2C2CC2)ncc1C(F)(F)F (stereo not drawn) [Compound 167] to CNc1nc(Nc2cc(C3(C)CCn4ccnc43)nn2C2CC2)ncc1C(F)(F)F (stereo not drawn) [Compound 177], the IC50 rises from less than 30 nM to greater than 60 nM.

CCNc1nc(Nc2cnn3c2CC(C#N)C3)ncc1C(F)(F)F (single isomer, unassigned) [Compound 52A] and CCNc1nc(Nc2cn([C@H]3C[C@H](C#N)C3)nc2C)ncc1C(F)(F)F [Compound 35A] cannot be ordered by IC50: less than 30 nM for the first, less than 30 nM for the second.

Cc1nn(C(C)(C)C#N)cc1Nc1ncc(C(F)(F)F)c(NC2C3CC2C3)n1 (stereo not drawn) [Compound 5] and Cc1nn(C(C)(C)C#N)cc1Nc1ncc(C(F)(F)F)c(N[C@H]2C[C@H]2F)n1 [Compound 39A] cannot be ordered by IC50: less than 30 nM for the first, less than 30 nM for the second.

CNc1nc(Nc2cn(C(C)(C)C#N)nc2C)ncc1Br [Compound 42] and Cc1nn(C(C)(C)C#N)cc1Nc1ncc(Cl)c(NC2CC2)n1 [Compound 72] cannot be ordered by IC50: less than 30 nM for the first, less than 30 nM for the second.

COc1nc(Nc2cnn(C3(C)CCNC3=O)c2C)ncc1Br (stereo not drawn) [Compound 65] and COc1nc(Nc2cn(C3(C)CCOC3=O)nc2C)ncc1Br (single isomer, unassigned) [Compound 102] cannot be ordered by IC50: less than 30 nM for the first, less than 30 nM for the second.

CCNc1nc(Nc2cn(C3C[C@H]3C#N)nc2Cl)ncc1C(F)(F)F (single isomer, unassigned) [Compound 207] and CNc1nc(Nc2cn(C3C[C@H]3C#N)nc2C2CC2)ncc1C(F)(F)F (single isomer, unassigned) [Compound 209] cannot be ordered by IC50: less than 30 nM for the first, less than 30 nM for the second.

CCNc1nc(Nc2cc(C3(C)COC3)nn2C2CC2)ncc1Br [Compound 148] and CCNc1nc(Nc2cc(C3(C)CCOC3=O)nn2C2CC2)ncc1Br (stereo not drawn) [Compound 151] cannot be ordered by IC50: less than 30 nM for the first, less than 30 nM for the second.

First: CNc1nc(Nc2cnn(C3CN(C4COC4)CCC3(F)F)c2Cl)ncc1C(F)(F)F (single isomer, unassigned) [Compound 29]
Second: CNc1nc(Nc2cnn(C3CCCC3(C)O)c2C)ncc1C(F)(F)F (single isomer, unassigned) [Compound 31]
The IC50 of the first is lower: less than 30 nM for the first, 30 to 60 nM for the second.

CCNc1nc(Nc2cnn(C3CCCN(CC(F)F)C3)c2C)ncc1C(F)(F)F (single isomer, unassigned) [Compound 92] and CCNc1nc(Nc2cnn([C@H]3C[C@@H](N4CCN(CC(F)F)CC4)C3)c2C)ncc1C(F)(F)F [Compound 106] cannot be ordered by IC50: less than 30 nM for the first, less than 30 nM for the second.

CCNc1nc(Nc2cn(C3C[C@H]3C#N)nc2C2CC2)ncc1Br (single isomer, unassigned) [Compound 215] and COc1nc(Nc2cn(C3C[C@H]3C#N)nc2C2CC2)ncc1Br (single isomer, unassigned) [Compound 213] cannot be ordered by IC50: less than 30 nM for the first, less than 30 nM for the second.

CCNc1nc(Nc2cc([C@H]3C[C@H]3C#N)nn2C2CC2)ncc1C(F)(F)F [Compound 164] and CCNc1nc(Nc2cc([C@H]3C[C@@H]3C#N)nn2C2CC2)ncc1C(F)(F)F [Compound 152] cannot be ordered by IC50: less than 30 nM for the first, less than 30 nM for the second.

CCNc1nc(Nc2cc([C@@]3(C)CCOC3=O)nn2C2CC2)ncc1C(F)(F)F [Compound 144, (3R)-3-[1-cyclopropyl-5-[[4-(ethylamino)-5-(trifluoromethyl)pyrimidin-2-yl]amino]pyrazol-3-yl]-3-methyl-tetrahydrofuran-2-one] and CNc1nc(Nc2cc(C3(C)CCn4ccnc43)nn2C2CC2)ncc1C(F)(F)F (stereo not drawn) [Compound 178] cannot be ordered by IC50: less than 30 nM for the first, less than 30 nM for the second.

CCNc1nc(Nc2cnn3c2CC(C#N)C3)ncc1C(F)(F)F (single isomer, unassigned) [Compound 52B] and CCNc1nc(Nc2cnn(C3CNCCC3(F)F)c2C)ncc1C(F)(F)F (single isomer, unassigned) [Compound 201] cannot be ordered by IC50: less than 30 nM for the first, less than 30 nM for the second.

Cc1nn(C(C)(C)C#N)cc1Nc1ncc(C(F)(F)F)c(NCC(F)F)n1 [Compound 59] and N#C[C@@H]1CC1n1cc(Nc2ncc(C(F)(F)F)c(NCC(F)F)n2)c(C2CC2)n1 (single isomer, unassigned) [Compound 210] cannot be ordered by IC50: less than 30 nM for the first, less than 30 nM for the second.

Cn1nc(C(C)(C)n2nccn2)cc1Nc1ncc(C(F)(F)F)c(NC2CC2)n1 [Compound 69] and CCNc1nc(Nc2cc(C(C)(C)OC)nn2C2CCC2)ncc1C(F)(F)F [Compound 192] cannot be ordered by IC50: less than 30 nM for the first, less than 30 nM for the second.

CCNc1nc(Nc2cnn(-c3cnccn3)c2Cl)ncc1C(F)(F)F [Compound 98] and [2H]C([2H])([2H])n1nc([C@]23C[C@H]2COC3=O)cc1Nc1ncc(C(F)(F)F)c(NCC)n1 [Compound 185] cannot be ordered by IC50: less than 30 nM for the first, less than 30 nM for the second.

Compared with CNc1nc(Nc2cn(CC34CC(C#N)(C3)C4)nc2C)ncc1C(F)(F)F [Compound 6], CNc1nc(Nc2cn(C3(C)CCCC3=O)nc2C)ncc1C(F)(F)F (stereo not drawn) [Compound 195] is lower in IC50: greater than 60 nM for the first, less than 30 nM for the second.

Cc1nn(C2(C)CCOC2=O)cc1Nc1ncc(C(F)(F)F)c(C2CC2)n1 (single isomer, unassigned) [Compound 120] and CNc1nc(Nc2cn(C3CC3)nc2[C@H]2C[C@H](n3nccn3)C2)ncc1C(F)(F)F [Compound 198] cannot be ordered by IC50: less than 30 nM for the first, less than 30 nM for the second.
